Here are results for six compounds from ChEMBL document CHEMBL4417631, “Oral peptide inhibitors of interleukin-23 receptor and their use to treat inflammatory bowel diseases” (2017).

For series [1], the target named is T1, Interleukin-23 receptor (Homo sapiens, UniProt Q5VWK5).
T1 sequence (Q5VWK5 whole entry): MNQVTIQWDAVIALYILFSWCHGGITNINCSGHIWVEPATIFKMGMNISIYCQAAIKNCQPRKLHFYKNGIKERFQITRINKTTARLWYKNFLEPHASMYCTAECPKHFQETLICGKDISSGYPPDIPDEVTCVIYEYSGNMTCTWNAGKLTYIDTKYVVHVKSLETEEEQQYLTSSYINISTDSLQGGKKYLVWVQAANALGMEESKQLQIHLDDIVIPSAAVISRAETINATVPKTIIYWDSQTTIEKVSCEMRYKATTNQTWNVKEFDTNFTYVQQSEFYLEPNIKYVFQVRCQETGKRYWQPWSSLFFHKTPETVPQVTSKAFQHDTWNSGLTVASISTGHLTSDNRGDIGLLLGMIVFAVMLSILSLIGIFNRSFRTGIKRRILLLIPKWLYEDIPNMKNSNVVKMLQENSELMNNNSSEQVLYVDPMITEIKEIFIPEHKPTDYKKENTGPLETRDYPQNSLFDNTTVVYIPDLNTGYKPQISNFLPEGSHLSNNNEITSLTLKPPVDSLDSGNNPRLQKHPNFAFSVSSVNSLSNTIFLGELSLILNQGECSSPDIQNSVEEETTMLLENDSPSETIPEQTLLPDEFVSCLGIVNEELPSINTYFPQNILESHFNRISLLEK
Briefly: Inhibition of interleukin-23 receptor in human DB cells assessed as reduction in IL-23-stimulated STAT3 phosphorylation incubated for 30 mins by HTRF assay. The class given is cell-based.

Series [2] in a line: Inhibition of interleukin-23 binding to rat interleukin-23 receptor incubated for 2 hrs by competitive binding ELISA.
A short description of series [3]: Half life in simulated gastric fluid at 20 uM by LC-MS/MS analysis. Format: ADME.
Series [4] is described as follows: Half life in simulated intestinal fluid at 20 uM by LC-MS/MS analysis. Format: ADME.
For series [5], the target named is T1, Interleukin-23 receptor. Briefly: Inhibition of interleukin-23 receptor in human natural killer cells assessed as reduction in IL23/IL18-induced IFNgamma production incubated for 20 to 24 hrs by ELISA. Format: cell-based.
Series [6] deals with T1, Interleukin-23 receptor. Put plainly: Inhibition of interleukin-23 binding to human interleukin-23 receptor incubated for 2 hrs by competitive binding ELISA.

Turning to `CC(=O)N[C@H]1CCSC[C@@H](C(=O)N[C@@H](Cc2ccc(OCCN)cc2)C(=O)N[C@@H](Cc2ccc3ccccc3c2)C(=O)NC2(C(=O)N[C@@H](CCC(=O)O)C(=O)N[C@@H](CC(N)=O)C(=O)N[C@@H](CC(N)=O)C(N)=O)CCC2)NC(=O)[C@H](CCC(N)=O)NC(=O)[C@H](Cc2c[nH]c3ccccc23)NC(=O)[C@H]([C@@H](C)O)NC(=O)[C@H](CCC(N)=O)NC1=O`, the IC50 on Interleukin-23 receptor [1] was < 10 nM; in series [2] it was < 10 nM; at Interleukin-23 receptor [5], < 25 nM. In addition, the half-life at 20 µM was 1 to 2 h in series [3] and < 1 h in series [4].

Take `CC(=O)NCCCC[C@H](NC(=O)C(C)(C)NC(=O)[C@H](Cc1ccc2ccccc2c1)NC(=O)[C@H](Cc1ccc(OCCN)cc1)NC(=O)[C@@H]1CSCC[C@H](NC(C)=O)C(=O)N[C@@H](CCC(N)=O)C(=O)N[C@@H]([C@@H](C)O)C(=O)N[C@@H](Cc2c[nH]c3ccccc23)C(=O)N[C@@H](CCC(N)=O)C(=O)N1)C(=O)N[C@@H](CC(N)=O)C(=O)N[C@@H](C)C(N)=O`: the IC50 at Interleukin-23 receptor [6] was < 10 nM; at Interleukin-23 receptor [1], < 10 nM; in series [2], 10 to 25 nM; at Interleukin-23 receptor [5], < 25 nM. In addition, the half-life at 20 µM is < 1 h in series [3] and 1 to 2 h in series [4].

On to `CC(=O)N[C@H]1CCSC[C@@H](C(=O)N[C@@H](Cc2ccc(O)cc2)C(=O)N[C@@H](Cc2ccc3ccccc3c2)C(=O)N[C@@](C)(CC(C)C)C(=O)N[C@@H](CCC(=O)O)C(=O)N[C@@H](CC(N)=O)C(=O)NCC(N)=O)NC(=O)[C@H](CCC(N)=O)NC(=O)[C@H](Cc2c[nH]c3ccccc23)NC(=O)[C@H]([C@@H](C)O)NC(=O)[C@H](CCC(N)=O)NC1=O`, for which the concentration for half-maximal inhibition (IC50) is 10 to 25 nM on Interleukin-23 receptor [6], < 10 nM on Interleukin-23 receptor [1], 10 to 25 nM in series [2] and < 25 nM on Interleukin-23 receptor [5]. For the same compound, in series [4], the half-life at 20 µM was < 1 h.

In the case of `CC(=O)NCCCC[C@H](NC(=O)C(C)(C)NC(=O)[C@H](Cc1ccc2ccccc2c1)NC(=O)[C@H](Cc1ccc(C(N)=O)cc1)NC(=O)[C@@H](NC(=O)[C@H](CCC(N)=O)NC(=O)[C@H](Cc1c[nH]c2ccccc12)NC(=O)[C@@H](NC(=O)[C@H](CC(N)=O)NC(=O)[C@@H](NC(C)=O)C(C)(C)S)[C@@H](C)O)C(C)(C)S)C(=O)N[C@@H](CC(N)=O)C(=O)N[C@@H](CC(N)=O)C(N)=O`, the half-life at 20 µM is 3 to 6 h in series [3] and 1 to 2 h in series [4]. At Interleukin-23 receptor [5], the IC50 is < 10 nM.

Regarding `CC(=O)NCCCC[C@H](NC(=O)C(C)(C)NC(=O)[C@H](Cc1ccc2ccccc2c1)NC(=O)[C@H](Cc1ccc(OCCN)cc1)NC(=O)[C@@H](NC(=O)[C@H](CCC(N)=O)NC(=O)[C@H](Cc1c[nH]c2ccccc12)NC(=O)[C@@H](NC(=O)[C@H](CC(N)=O)NC(=O)[C@@H](NC(C)=O)C(C)(C)S)[C@@H](C)O)C(C)(C)S)C(=O)N[C@@H](CC(N)=O)C(=O)NCCC(N)=O`, the half-maximal inhibitory concentration (IC50) at Interleukin-23 receptor [1] was < 10 nM; in series [2] it was 10 to 25 nM; on Interleukin-23 receptor [5], < 10 nM. For the same compound, the half-life at 20 µM in series [3] and in series [4] was > 6 h in each case.

Regarding `CC(=O)NCCCC[C@H](NC(=O)[C@@](C)(NC(=O)[C@H](Cc1ccc2ccccc2c1)NC(=O)[C@H](Cc1ccc(C(N)=O)cc1)NC(=O)[C@@H](NC(=O)[C@H](CCC(N)=O)NC(=O)[C@H](Cc1c[nH]c2ccccc12)NC(=O)[C@@H](NC(=O)[C@H](CCC(N)=O)NC(=O)[C@@H](NC(C)=O)C(C)(C)S)[C@@H](C)O)C(C)(C)S)C(C)C)C(=O)N[C@@H](CC(N)=O)C(=O)N[C@@H](CC(N)=O)C(N)=O`, the IC50 was < 10 nM at Interleukin-23 receptor [1], 10 to 25 nM in series [2] and 10 to 25 nM on Interleukin-23 receptor [5]. Further, the half-life at 20 µM in series [3] was 3 to 6 h; in series [4] it was > 6 h.
